Assays:
Test in all cases: NCI 60 cell panel SRB screen
[1] = tested on: HL-60(TB); assay type: cell-based; details: Homo sapiens
[2] = tested on: MOLT-4; assay type: cell-based; details: Homo sapiens
[3] = tested on: SR; assay type: cell-based; details: Homo sapiens
[4] = tested on: NCI-H322M; assay type: cell-based; details: Homo sapiens
[5] = tested on: COLO 205; assay type: cell-based; details: Homo sapiens
[6] = tested on: HCT-116; assay type: cell-based; details: Homo sapiens
[7] = tested on: HCT-15; assay type: cell-based; details: Homo sapiens
[8] = tested on: HT29; assay type: cell-based; details: Homo sapiens, HT-29
[9] = tested on: KM12; assay type: cell-based; details: Homo sapiens
[10] = tested on: SW-620; assay type: cell-based; details: Homo sapiens
[11] = tested on: SNB-75; assay type: cell-based; details: Homo sapiens
[12] = tested on: U251; assay type: cell-based; details: Homo sapiens, U-251
[13] = tested on: MALME-3M; assay type: cell-based; details: Homo sapiens
[14] = tested on: M14; assay type: cell-based; details: Homo sapiens
[15] = tested on: SK-MEL-28; assay type: cell-based; details: Homo sapiens
[16] = tested on: UACC-62; assay type: cell-based
[17] = tested on: IGROV1; assay type: cell-based; details: Homo sapiens, IGROV-1
[18] = tested on: OVCAR-5; assay type: cell-based; details: Homo sapiens
[19] = tested on: 786-0; assay type: cell-based; details: Homo sapiens
[20] = tested on: A498; assay type: cell-based; details: Homo sapiens
[21] = tested on: CAKI-1; assay type: cell-based, human
[22] = tested on: RXF 393; assay type: cell-based; details: Homo sapiens
[23] = tested on: TK-10; assay type: cell-based, human
[24] = tested on: DU-145; assay type: cell-based; details: Homo sapiens
[25] = tested on: HS 578T; assay type: cell-based; details: Homo sapiens
[26] = tested on: BT-549; assay type: cell-based; details: Homo sapiens
[27] = 5 log dose, 48 h, read-out: LC50 (the source's name)
[28] = single dose 10 μM, read-out: percent cell growth promotion

Cc1nnc(Nc2ccc(NC(=O)Nc3ccc(Cl)cc3)cc2)c2ccccc12 [Compound 6e, 1–(4-Chlorophenyl)-3–(4-(4-methylphthalazin-1-ylamino)phenyl)urea]
GI50 ([1]; 5 log dose): 2.03 µM | IC (TGI) ([1]; 5 log dose): 4.18 µM | CC50 [1, 27]: 8.64 µM | activity at 10 µM [1, 28]: -34.8% | GI50 ([2]; MOLT-4, 5 log dose): 2.36 µM | IC (TGI) ([2]; MOLT-4, 5 log dose): 6 µM | CC50 ([2]; MOLT-4, 5 log dose, 48 h, read-out: LC50 (the source's name)): > 100 µM | activity at 10 µM ([2]; MOLT-4, single dose 10 μM, read-out: percent cell growth promotion): 9.76% | GI50 ([3]; 5 log dose): 2.56 µM | IC (TGI) ([3]; 5 log dose): 9.55 µM | CC50 [3, 27]: > 100 µM | activity at 10 µM [3, 28]: -3.51% | GI50 ([4]; 5 log dose): 3.31 µM | IC (TGI) ([4]; 5 log dose): 1.25 µM | CC50 [4, 27]: 69.5 µM | activity at 10 µM [4, 28]: 47.8% | GI50 ([5]; COLO 205, 5 log dose): 2.22 µM | IC (TGI) ([5]; COLO 205, 5 log dose): 5.29 µM | CC50 ([5]; COLO 205, 5 log dose, 48 h, read-out: LC50 (the source's name)): 19.2 µM | activity at 10 µM ([5]; COLO 205, single dose 10 μM, read-out: percent cell growth promotion): 28.2% | GI50 ([6]; HCT-116, 5 log dose): 1.86 µM | IC (TGI) ([6]; HCT-116, 5 log dose): 3.59 µM | LC50 (lethal concentration 50%) ([6]; HCT-116, 5 log dose, 48 h): 6.93 µM | activity at 10 µM ([6]; HCT-116, single dose 10 μM, read-out: percent cell growth promotion): 7.67% | GI50 ([7]; HCT-15, 5 log dose): 1.91 µM | IC (TGI) ([7]; HCT-15, 5 log dose): 4.53 µM | CC50 ([7]; HCT-15, 5 log dose, 48 h, read-out: LC50 (the source's name)): 13.9 µM | activity at 10 µM ([7]; HCT-15, single dose 10 μM, read-out: percent cell growth promotion): 6.39% | GI50 ([8]; HT29, 5 log dose): 1.78 µM | IC (TGI) ([8]; HT29, 5 log dose): 3.67 µM | CC50 ([8]; HT29, 5 log dose, 48 h, read-out: LC50 (the source's name)): 7.56 µM | activity at 10 µM ([8]; HT29, single dose 10 μM, read-out: percent cell growth promotion): 2.24% | GI50 ([9]; KM12, 5 log dose): 1.99 µM | IC (TGI) ([9]; KM12, 5 log dose): 4.53 µM | CC50 ([9]; KM12, 5 log dose, 48 h, read-out: LC50 (the source's name)): 11.1 µM | activity at 10 µM ([9]; KM12, single dose 10 μM, read-out: percent cell growth promotion): 14.1% | GI50 ([10]; SW-620, 5 log dose): 2.15 µM | IC (TGI) ([10]; SW-620, 5 log dose): 4.76 µM | CC50 ([10]; SW-620, 5 log dose, 48 h, read-out: LC50 (the source's name)): 11.9 µM | activity at 10 µM ([10]; SW-620, single dose 10 μM, read-out: percent cell growth promotion): 20.3% | GI50 ([11]; SNB-75, 5 log dose): 1.91 µM | IC (TGI) ([11]; SNB-75, 5 log dose): 5.49 µM | LC50 (concentration killing 50% of cells) ([11]; SNB-75, 5 log dose, 48 h): 21.3 µM | activity at 10 µM ([11]; SNB-75, single dose 10 μM, read-out: percent cell growth promotion): 68.1% | GI50 ([12]; U251, 5 log dose): 1.98 µM | IC (TGI) ([12]; U251, 5 log dose): 3.75 µM | CC50 ([12]; U251, 5 log dose, 48 h, read-out: LC50 (the source's name)): 7.07 µM | activity at 10 µM ([12]; U251, single dose 10 μM, read-out: percent cell growth promotion): 5.4% | GI50 ([13]; Malme-3M): 2.17 µM | IC (TGI) ([13]; Malme-3M, read-out: TGI): 4.79 µM | activity at 10 µM ([13]; Malme-3M, read-out: percent cell growth promotion): -9.9% | CC50 ([13]; MALME-3M, 5 log dose, 48 h, read-out: LC50 (the source's name)): 20 µM | GI50 ([14]; M14): 1.76 µM | IC (TGI) ([14]; M14, read-out: TGI): 3.57 µM | activity at 10 µM ([14]; M14, read-out: percent cell growth promotion): 37.3% | CC50 ([14]; M14, 5 log dose, 48 h, read-out: LC50 (the source's name)): 7.27 µM | GI50 ([15]; SK-MEL-28): 1.63 µM | IC (TGI) ([15]; SK-MEL-28, read-out: TGI): 3.2 µM | activity at 10 µM ([15]; SK-MEL-28, read-out: percent cell growth promotion): -11.9% | CC50 ([15]; SK-MEL-28, 5 log dose, 48 h, read-out: LC50 (the source's name)): 6.29 µM | GI50 ([16]; Homo sapiens, UACC-62): 1.75 µM | activity at 10 µM ([16]; Homo sapiens, UACC-62, read-out: percent cell growth promotion): -34.4% | CC50 ([16]; Homo sapiens, UACC-62, 5 log dose, 48 h, read-out: LC50 (the source's name)): 7.35 µM | TGI ([16]; UACC-62, 5 log dose): 3.59 µM | GI50 ([17]; IGROV1, 5 log dose): 3.98 µM | IC (TGI) ([17]; IGROV1, 5 log dose): 19.5 µM | CC50 ([17]; IGROV1, 5 log dose, 48 h, read-out: LC50 (the source's name)): > 100 µM | activity at 10 µM ([17]; IGROV1, single dose 10 μM, read-out: percent cell growth promotion): 62% | GI50 ([18]; OVCAR-5, 5 log dose): 2.1 µM | IC (TGI) ([18]; OVCAR-5, 5 log dose): 4.99 µM | CC50 ([18]; OVCAR-5, 5 log dose, 48 h, read-out: LC50 (the source's name)): 18.7 µM | activity at 10 µM ([18]; OVCAR-5, single dose 10 μM, read-out: percent cell growth promotion): 72.8% | GI50 ([19]; 786-0, 5 log dose): 1.71 µM | IC (TGI) ([19]; 786-0, 5 log dose): 3.34 µM | CC50 ([19]; 786-0, 5 log dose, 48 h, read-out: LC50 (the source's name)): 6.55 µM | activity at 10 µM ([19]; 786-0, single dose 10 μM, read-out: percent cell growth promotion): -27.9% | GI50 ([20]; A498, 5 log dose): 3.21 µM | IC (TGI) ([20]; A498, 5 log dose): 10.5 µM | CC50 ([20]; A498, 5 log dose, 48 h, read-out: LC50 (the source's name)): 38.5 µM | activity at 10 µM ([20]; A498, single dose 10 μM, read-out: percent cell growth promotion): 35.4% | TGI ([21]; CAKI-1, 5 log dose): 12.8 µM | GI50 ([21]; Homo sapiens, CAKI-1, 5 log dose): 3.49 µM | CC50 ([21]; Homo sapiens, CAKI-1, 5 log dose, 48 h, read-out: LC50 (the source's name)): 43.6 µM | activity at 10 µM ([21]; Homo sapiens, CAKI-1, single dose 10 μM, read-out: percent cell growth promotion): 33.9% | GI50 ([22]; RXF 393, 5 log dose): 2.17 µM | IC (TGI) ([22]; RXF 393, 5 log dose): 4.13 µM | CC50 ([22]; RXF 393, 5 log dose, 48 h, read-out: LC50 (the source's name)): 7.84 µM | activity at 10 µM ([22]; RXF 393, single dose 10 μM, read-out: percent cell growth promotion): -39.7% | GI50 ([23]; Homo sapiens, TK-10, 5 log dose): 3.19 µM | CC50 ([23]; Homo sapiens, TK-10, 5 log dose, 48 h, read-out: LC50 (the source's name)): 33.7 µM | activity at 10 µM ([23]; Homo sapiens, TK-10, single dose 10 μM, read-out: percent cell growth promotion): 51.7% | TGI ([23]; TK-10, 5 log dose): 9.42 µM | GI50 ([24]; DU-145, 5 log dose): 4.77 µM | IC (TGI) ([24]; DU-145, 5 log dose): 19.5 µM | CC50 ([24]; DU-145, 5 log dose, 48 h, read-out: LC50 (the source's name)): 66.9 µM | activity at 10 µM ([24]; DU-145, single dose 10 μM, read-out: percent cell growth promotion): 57.8% | GI50 ([25]; Hs-578T): 2.52 µM | IC (TGI) ([25]; Hs-578T, read-out: TGI): 6.4 µM | activity at 10 µM ([25]; Hs-578T, read-out: percent cell growth promotion): 3.43% | CC50 ([25]; HS 578T, 5 log dose, 48 h, read-out: LC50 (the source's name)): > 100 µM | GI50 ([26]; BT-549): 2.21 µM | IC (TGI) ([26]; BT-549, read-out: TGI): 5.55 µM | activity at 10 µM ([26]; BT-549, read-out: percent cell growth promotion): 11.4% | CC50 ([26]; BT-549, 5 log dose, 48 h, read-out: LC50 (the source's name)): 66 µM

Reference: PMC6691788, “Design and synthesis of phthalazine-based compounds as potent anticancer agents with potential antiangiogenic activity via VEGFR-2 inhibition” (Journal of Enzyme Inhibition and Medicinal Chemistry, 2019)
